From patent publication US20260042755A1, “GPR6 INVERSE AGONISTS” (MapLight Therapeutics, Inc., priority 2022, published 2026)

Legend:
GPR3 = target: T1, GPR3 (Homo sapiens, UniProt P46089); assay: GPR3 antagonist functional cAMP assay (LANCE Ultra cAMP TR-FRET, CHO cells stably expressing GPR3); assay type: cell-based; details: procedure of Example 24
T1 construct: expressed in transfected cells; host or cells: CHO cells
How it was run: (§1)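 Stable CHO-GPR6 or CHO-GPR3 cells (10,000/well) in Krebs-Ringer buffer with 0.1% BSA and 150 μM Ro 20-1724 were exposed to compounds for 45 min at 37° C (0.1% DMSO). cAMP read by LANCE Ultra TR-FRET; IC50 from 4-parameter fit normalized to DMSO and reference compounds.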

GPR6 = target: T2, GPR6 (Homo sapiens, UniProt P46095); assay: GPR6 antagonist functional cAMP assay (LANCE Ultra cAMP TR-FRET, CHO cells stably expressing GPR6); assay type: cell-based; details: procedure of Example 24
T2 construct: expressed in transfected cells; host or cells: CHO cells
How it was run: as §1

T2 sequence (P46095 whole entry): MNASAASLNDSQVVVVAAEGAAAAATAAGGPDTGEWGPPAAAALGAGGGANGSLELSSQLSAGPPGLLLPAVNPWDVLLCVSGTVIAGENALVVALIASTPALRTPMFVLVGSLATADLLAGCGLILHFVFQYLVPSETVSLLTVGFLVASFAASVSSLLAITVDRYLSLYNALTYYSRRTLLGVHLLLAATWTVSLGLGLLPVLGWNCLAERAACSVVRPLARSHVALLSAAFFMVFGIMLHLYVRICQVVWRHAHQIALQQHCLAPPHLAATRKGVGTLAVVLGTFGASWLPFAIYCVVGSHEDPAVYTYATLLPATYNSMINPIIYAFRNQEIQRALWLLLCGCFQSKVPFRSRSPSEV
T1 sequence (P46089 whole entry, species assumed): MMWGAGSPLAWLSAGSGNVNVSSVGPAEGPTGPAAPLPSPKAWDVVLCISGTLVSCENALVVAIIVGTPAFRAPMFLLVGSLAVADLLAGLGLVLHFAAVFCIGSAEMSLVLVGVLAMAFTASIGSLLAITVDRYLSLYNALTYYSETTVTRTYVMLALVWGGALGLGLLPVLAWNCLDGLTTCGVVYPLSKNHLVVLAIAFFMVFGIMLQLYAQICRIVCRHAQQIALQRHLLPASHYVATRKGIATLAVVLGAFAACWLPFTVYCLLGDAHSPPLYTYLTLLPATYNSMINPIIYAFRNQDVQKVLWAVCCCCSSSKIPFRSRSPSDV

Structure (SMILES)	IC50 (GPR3) [nM]	IC50 (GPR6) [nM]
CC(=O)N1CCc2nc(N3CCC(C(O)c4ccc(F)cc4F)CC3)c(-c3ccc(F)c(N)n3)nc2C1 (centres unmarked) [Compound 703, 1-[3-(6-amino-5-fluoro-2-pyridyl)-2-{4-[(2,4-difluorophenyl)hydroxymethyl]-1-piperidyl}-5,6,7,8-tetrahydro-1,4,6-triaza-6-naphthyl]-1-ethanone]	1000 to 30000	1000 to 30000
CC(C)(O)Cc1cc2nc(-c3cnn(C4CC4)c3)c(N3CCC(Oc4ccc(F)cc4F)CC3)nc2cn1 [Compound 704, 1-{2-(1-cyclopropyl-4-pyrazolyl)-3-[4-(2,4-difluorophenoxy)-1-piperidyl]-1,4,6-triaza-7-naphthyl}-2-methyl-2-propanol]	1000 to 30000	100 to 1000
CC(C)(O)Cc1cc2nc(N3CCC(Oc4ccc(F)cc4F)CC3)c(-c3cnn(C4CC4)c3)nc2cn1 [Compound 705, 1-{3-(1-cyclopropyl-4-pyrazolyl)-2-[4-(2,4-difluorophenoxy)-1-piperidyl]-1,4,6-triaza-7-naphthyl}-2-methyl-2-propanol]	1000 to 30000	100 to 1000
CCn1cc(-c2nc3cnc(CC(C)(C)O)cc3nc2N2CCC(Oc3ccc(F)cc3F)CC2)cn1 [Compound 706, 1-{2-[4-(2,4-difluorophenoxy)-1-piperidyl]-3-(1-ethyl-4-pyrazolyl)-1,4,6-triaza-7-naphthyl}-2-methyl-2-propanol]	1000 to 30000	100 to 1000
CC(C)(O)Cc1cc2nc(N3CCC(Oc4ccc(F)cc4F)CC3)c(-c3cnn(CF)c3)nc2cn1 [Compound 710, 1-{2-[4-(2,4-difluorophenoxy)-1-piperidyl]-3-[1-(fluoromethyl)-4-pyrazolyl]-1,4,6-triaza-7-naphthyl}-2-methyl-2-propanol]	1000 to 30000	100 to 1000
CC(C)(O)Cc1cc2nc(-c3cnn(C(F)F)c3)c(N3CCC(Oc4ccc(F)cc4F)CC3)nc2cn1 [Compound 714, 1-{2-[1-(difluoromethyl)-4-pyrazolyl]-3-[4-(2,4-difluorophenoxy)-1-piperidyl]-1,4,6-triaza-7-naphthyl}-2-methyl-2-propanol]	1000 to 30000	100 to 1000
CC(C)(O)Cc1cc2nc(-c3cnn(CF)c3)c(N3CCC(Oc4ccc(F)cc4F)CC3)nc2cn1 [Compound 717, 1-{3-[4-(2,4-difluorophenoxy)-1-piperidyl]-2-[1-(fluoromethyl)-4-pyrazolyl]-1,4,6-triaza-7-naphthyl}-2-methyl-2-propanol]	1000 to 30000	100 to 1000
CC(=O)N1CCc2nc(N3CCC(=C(C)c4ccc(F)cc4F)CC3)c(-c3cnn(C)c3)nc2C1 [Compound 718, 1-(2-{4-[1-(2,4-difluorophenyl)ethylidene]-1-piperidyl}-3-(1-methyl-4-pyrazolyl)-5,6,7,8-tetrahydro-1,4,6-triaza-6-naphthyl)-1-ethanone]	1000 to 30000	1000 to 30000
CC(=O)N1CCc2nc(N3CCN(C(C)c4ccc(F)cc4F)CC3)c(-c3cnn(C)c3)nc2C1 (centres unmarked) [Compound 729, 1-(2-{4-[1-(2,4-difluorophenyl)ethyl]-1-piperazinyl}-3-(1-methyl-4-pyrazolyl)-5,6,7,8-tetrahydro-1,4,6-triaza-6-naphthyl)-1-ethanone]	1000 to 30000	1000 to 30000
CC(=O)N1CCc2nc(N3CCN(C(c4ccccc4)C(F)(F)F)CC3)c(-c3cnn(C)c3)nc2C1 (centres unmarked) [Compound 730, 1-{3-(1-methyl-4-pyrazolyl)-2-[4-(2,2,2-trifluoro-1-phenylethyl)-1-piperazinyl]-5,6,7,8-tetrahydro-1,4,6-triaza-6-naphthyl}-1-ethanone]	1000 to 30000	1000 to 30000
CC(=O)N1CCc2nc(N3CCN(C(c4ccc(F)cc4F)C(F)(F)F)CC3)c(-c3cnn(C)c3)nc2C1 (centres unmarked) [Compound 731, 1-(2-{4-[1-(2,4-difluorophenyl)-2,2,2-trifluoroethyl]-1-piperazinyl}-3-(1-methyl-4-pyrazolyl)-5,6,7,8-tetrahydro-1,4,6-triaza-6-naphthyl)-1-ethanone]	≥ 30000	1000 to 30000
COC(=O)/C(C)=C/c1cc2nc(N3CCC(Oc4ccc(F)cc4F)CC3)c(-c3cnn(C)c3)nc2cn1 [Compound 734, methyl 3-{2-[4-(2,4-difluorophenoxy)-1-piperidyl]-3-(1-methyl-4-pyrazolyl)-1,4,6-triaza-7-naphthyl}methacrylate]	1000 to 30000	1000 to 30000
CC(=O)N1CCc2nc(N3CCC(Cc4ccc(F)cc4F)C3)c(-c3cnn(C)c3)nc2C1 (centres unmarked) [Compound 738, 1-(2-{3-[(2,4-difluorophenyl)methyl]-1-pyrrolidinyl}-3-(1-methyl-4-pyrazolyl)-5,6,7,8-tetrahydro-1,4,6-triaza-6-naphthyl)-1-ethanone]	1000 to 30000	1000 to 30000
COC(=O)/C=C/c1cc2nc(N3CCC(Oc4ccc(F)cc4F)CC3)c(-c3cnn(C)c3)nc2cn1 [Compound 745, methyl 3-{2-[4-(2,4-difluorophenoxy)-1-piperidyl]-3-(1-methyl-4-pyrazolyl)-1,4,6-triaza-7-naphthyl}acrylate]	1000 to 30000	1000 to 30000
CC(C)(O)CNc1cc2nc(-c3cnn(CF)c3)c(N3CCN(Cc4ccc(F)cc4F)CC3)nc2cn1 [Compound 757, 1-(3-{4-[(2,4-difluorophenyl)methyl]-1-piperazinyl}-2-[1-(fluoromethyl)-4-pyrazolyl]-1,4,6-triaza-7-naphthylamino)-2-methyl-2-propanol]	1000 to 30000	100 to 1000
OCCNc1cc2nc(-c3cnn(CF)c3)c(N3CCN(Cc4ccc(F)cc4F)CC3)nc2cn1 [Compound 759, 2-(3-{4-[(2,4-difluorophenyl)methyl]-1-piperazinyl}-2-[1-(fluoromethyl)-4-pyrazolyl]-1,4,6-triaza-7-naphthylamino)ethanol]	1000 to 30000	100 to 1000
OCCOc1cc2nc(-c3cnn(CF)c3)c(N3CCN(Cc4ccc(F)cc4F)CC3)nc2cn1 [Compound 760, 2-(3-{4-[(2,4-difluorophenyl)methyl]-1-piperazinyl}-2-[1-(fluoromethyl)-4-pyrazolyl]-1,4,6-triaza-7-naphthyloxy)ethanol]	100 to 1000	100 to 1000
FCn1cc(-c2nc3cc(Cl)ncc3nc2N2CCN(Cc3ccc(F)cc3F)CC2)cn1 [Compound 761, 7-chloro-3-{4-[(2,4-difluorophenyl)methyl]-1-piperazinyl}-2-[1-(fluoromethyl)-4-pyrazolyl]-1,4,6-triazanaphthalene]	1000 to 30000	100 to 1000
COCCNc1cc2nc(-c3cnn(CF)c3)c(N3CCN(Cc4ccc(F)cc4F)CC3)nc2cn1 [Compound 762, (2-methoxyethyl)(3-{4-[(2,4-difluorophenyl)methyl]-1-piperazinyl}-2-[1-(fluoromethyl)-4-pyrazolyl]-1,4,6-triaza-7-naphthyl)amine]	1000 to 30000	1000 to 30000
O=C(O)c1cc2nc(-c3cnn(CF)c3)c(N3CCN(Cc4ccc(F)cc4F)CC3)nc2cn1 [Compound 765, 3-{4-[(2,4-difluorophenyl)methyl]-1-piperazinyl}-2-[1-(fluoromethyl)-4-pyrazolyl]-1,4,6-triaza-7-naphthoic acid]	1000 to 30000	1000 to 30000
Cn1cc(-c2nc3cnc(C4CC4CO)cc3nc2N2CCC(Oc3ccc(F)cc3F)CC2)cn1 (centres unmarked) [Compound 768, (2-{2-[4-(2,4-difluorophenoxy)-1-piperidyl]-3-(1-methyl-4-pyrazolyl)-1,4,6-triaza-7-naphthyl}cyclopropyl)methanol]	1000 to 30000	1000 to 30000
Fc1ccc(F)c(CN2CCN(c3nc4cnc(-c5cnn(C(F)F)c5)cc4nc3-c3cnn(C(F)F)c3)CC2)c1 [Compound 774, 2,7-bis [1-(difluoromethyl)-4-pyrazolyl]-3-{4-[(2,5-difluorophenyl)methyl]-1-piperazinyl}-1,4,6-triazanaphthalene]	1000 to 30000	1000 to 30000
CC(C)(O)C(O)c1cc2nc(-c3cn[nH]c3)c(N3CCC(=Cc4ccc(F)cc4F)CC3)nc2cn1 (centres unmarked) [Compound 780, 1-(3-{4-[(2,4-difluorophenyl)methylene]-1-piperidyl}-2-(4-pyrazolyl)-1,4,6-triaza-7-naphthyl)-2-methyl-1,2-propanediol]	100 to 1000	< 100
Cn1cc(-c2nc3cnccc3nc2N2CCc3c(cnn3-c3ccc(F)cc3F)C2)cn1 [Compound 788, 1-(2,4-difluorophenyl)-5-[3-(1-methyl-4-pyrazolyl)-1,4,6-triaza-2-naphthyl]-4,5,6,7-tetrahydro-1H-1,2,5-triazaindene]	≥ 30000	≥ 30000
CC(=O)N1CCc2nc(N3CCc4c(cnn4-c4ccc(F)cc4F)C3)c(-c3cnn(C)c3)nc2C1 [Compound 789, 1-{2-[1-(2,4-difluorophenyl)-4,5,6,7-tetrahydro-1H-1,2,5-triazainden-5-yl]-3-(1-methyl-4-pyrazolyl)-5,6,7,8-tetrahydro-1,4,6-triaza-6-naphthyl}-1-ethanone]	1000 to 30000	1000 to 30000
CC(=O)N1CCc2nc(N3CCC(C(C)c4ccc(F)cc4F)CC3)c(-c3cnn(C)c3)nc2C1 (centres unmarked) [Compound 790, 1-(2-{4-[1-(2,4-difluorophenyl)ethyl]-1-piperidyl}-3-(1-methyl-4-pyrazolyl)-5,6,7,8-tetrahydro-1,4,6-triaza-6-naphthyl)-1-ethanone]	1000 to 30000	100 to 1000
CC(C)(O)C(O)c1cc2nc(N3CCN(Cc4ccc(F)cc4F)CC3)c(-c3ccc(F)c(N)n3)nc2cn1 (centres unmarked) [Compound 791, 1-[3-(6-amino-5-fluoro-2-pyridyl)-2-{4-[(2,4-difluorophenyl)methyl]-1-piperazinyl}-1,4,6-triaza-7-naphthyl]-2-methyl-1,2-propanediol]	100 to 1000	100 to 1000
N#Cc1cc2nc(-c3cnn(CF)c3)c(N3CCN(Cc4ccc(F)cc4F)CC3)nc2cn1 [Compound 793, 3-{4-[(2,4-difluorophenyl)methyl]-1-piperazinyl}-2-[1-(fluoromethyl)-4-pyrazolyl]-1,4,6-triaza-7-naphthonitrile]	1000 to 30000	1000 to 30000
